For 34 molecules, IC50 results are on record in US10118930B2, “Piperidinylpyrazolopyrimidinones and their use” (BAYER PHARMA AKTIENGESELLSCHAFT, priority 2015, dated 2018).

pIC50: −log10 of the molar value. Counter-ions that a name gives are not always drawn.

As usually defined, the pIC50 is the negative decadic logarithm of the IC50, by convention in mol/L. A lower pIC50 goes with a large IC50.

This assay relates to clot lysis (fibrinolysis) in diluted human citrated plasma, tPA-induced. As to the kind of experiment: Plasma-based clot lysis assay (5%). The assay is classed as biochemical. The settings on record: human citrated platelet-poor plasma 5%, fibrinogen 3 μM, CaCl2 10 mM, tPA 0.2 nM, 37° C., OD at 405 nm. The method, boiled down:
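Compounds added to 5% platelet-poor citrated human plasma with 3 μM fibrinogen in 20 mM HEPES, 150 mM NaCl, 0.01% Brij, pH 7. Clotting and lysis started with 10 mM CaCl2 and 0.2 nM tPA at 37° C. IC50 derived by comparing time courses with a blank control reaction.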
For the molecule `CC(C)(C)c1cnc(-c2cnn3c(C4CCNCC4)cc(=O)[nH]c23)o1` [Example 332, 3-(5-tert-butyl-1,3-oxazol-2-yl)-7-(piperidin-4-yl)pyrazolo[1,5-a]pyrimidin-5 (4H)-one hydrochloride], the pIC50 was 7.59.

In turn, `O=C(NCc1ccccc1)c1cnn2c(C3CCNCC3)cc(=O)[nH]c12` [Example 22, N-Benzyl-5-oxo-7-(piperidin-4-yl)-4,5-dihydropyrazolo[1,5-a]pyrimidine-3-carboxamide hydrochloride] gave a pIC50 of 7.89. The same measure for `CC(C)OC(=O)c1c(C(F)(F)F)nn2c(C3CCNCC3)cc(=O)[nH]c12` [Example 460, Propan-2-yl 5-oxo-7-(piperidin-4-yl)-2-(trifluoromethyl)-4,5-dihydropyrazolo[1,5-a]pyrimidine-3-carboxylate hydrochloride]: 7.23. Regarding `Cc1nn2c(C3CCNCC3)cc(=O)[nH]c2c1-c1nc(Cc2ccc(O)cc2)no1` [Example 446, 3-[3-(4-hydroxybenzyl)-1,2,4-oxadiazol-5-yl]-2-methyl-7-(piperidin-4-yl)pyrazolo[1,5-a]pyrimidin-5(4H)-one hydrochloride], the pIC50 is 8.00. The figure for `O=C(c1cnn2c(C3CCNCC3)cc(=O)[nH]c12)C1CCCC1` [Example 451, 3-(cyclopentylcarbonyl)-7-(piperidin-4-yl)pyrazolo[1,5-a]pyrimidin-5(4H)-one hydrochloride] is 7.96. The figure for `O=c1cc(C2CCNCC2)n2ncc(-c3nc(-c4cccc(OC(F)(F)F)c4)no3)c2[nH]1` [Example 124, 7-(Piperidin-4-yl)-3-{3-[3-(trifluoromethoxy)phenyl]-1,2,4-oxadiazol-5-yl}pyrazolo[1,5-a]pyrimidin-5(4H)-one hydrochloride] is 7.42; for `O=C(NC1(Cc2ccccc2)CC1)c1cnn2c(C3CCNCC3)cc(=O)[nH]c12` [Example 94, N-(1-benzylcyclopropyl)-5-oxo-7-(piperidin-4-yl)-4,5-dihydropyrazolo[1,5-a]pyrimidine-3-carboxamide hydrochloride] it is 7.52.

Turning to `O=c1cc(C2CCNCC2)n2ncc(-c3nnc(Cc4ccccc4Cl)o3)c2[nH]1` [Example 276, 3-[5-(2-chlorobenzyl)-1,3,4-oxadiazol-2-yl]-7-(piperidin-4-yl)pyrazolo[1,5-a]pyrimidin-5(4H)-one hydrochloride], the pIC50 was 7.85. The figure for `COCc1nc(-c2cnn3c(C4CCNCC4)cc(=O)[nH]c23)no1` [Example 394, 3-(5-(methoxymethyl)-1,2,4-oxadiazol-3-yl)-7-(piperidin-4-yl)pyrazolo[1,5-a]pyrimidin-5(4H)-one hydrochloride] is 7.54. The molecule `CC(C)(c1ccccc1)c1noc(-c2cnn3c(C4CCNCC4)cc(=O)[nH]c23)n1` [Example 223, 3-[3-(2-phenylpropan-2-yl)-1,2,4-oxadiazol-5-yl]-7-(piperidin-4-yl)pyrazolo[1,5-a]pyrimidin-5(4H)-one hydrochloride] gave a pIC50 of 7.51.

The molecule `CCc1noc(-c2c(C)nn3c(C4CCNCC4)cc(=O)[nH]c23)n1` [Example 300, 3-(3-ethyl-1,2,4-oxadiazol-5-yl)-2-methyl-7-(piperidin-4-yl)pyrazolo[1,5-a]pyrimidin-5(4H)-one hydrochloride] showed a pIC50 of 7.80. The figure for `Cc1nn2c(C3CCNCC3)cc(=O)[nH]c2c1-c1nc(C(C)(C)C)no1` [Example 296, 3-(3-tert-butyl-1,2,4-oxadiazol-5-yl)-2-methyl-7-(piperidin-4-yl)pyrazolo[1,5-a]pyrimidin-5(4H)-one hydrochloride] is 7.64; for `Cc1nn2c(C3CCNCC3)cc(=O)[nH]c2c1-c1ccc(Br)cc1` [Example 10, 3-(4-Bromophenyl)-2-methyl-7-(piperidin-4-yl)pyrazolo[1,5-a]pyrimidin-5(4H)-one hydrochloride] it is 6.96. The figure for `O=c1cc(C2CCNCC2)n2ncc(-c3nc(C4CCC4)no3)c2[nH]1` [Example 108, 3-(3-cyclobutyl-1,2,4-oxadiazol-5-yl)-7-(piperidin-4-yl)pyrazolo[1,5-a]pyrimidin-5(4H)-one] is 7.12. `O=c1cc(C2CCNCC2)n2ncc(-c3nnc(C4CCCCC4)o3)c2[nH]1` [Example 293, 3-(5-cyclohexyl-1,3,4-oxadiazol-2-yl)-7-(piperidin-4-yl)pyrazolo[1,5-a]pyrimidin-5 (4H)-one hydrochloride] gave a pIC50 of 7.51. The figure for `O=c1cc(C2CCNCC2)n2ncc(-c3nc(Cc4ccc(Cl)cc4)no3)c2[nH]1` [Example 210, 3-[3-(4-chlorobenzyl)-1,2,4-oxadiazol-5-yl]-7-(piperidin-4-yl)pyrazolo[1,5-a]pyrimidin-5(4H)-one hydrochloride] is 7.47.

For `O=c1cc(C2CCNCC2)n2nc(-c3ccccc3)c(Br)c2[nH]1` [Example 29, 3-Bromo-2-phenyl-7-(piperidin-4-yl)pyrazolo[1,5-a]pyrimidin-5(4H)-one hydrochloride], the pIC50 was 7.70. `O=c1cc(C2CCNCC2)n2ncc(-c3noc(Cc4ccccc4)n3)c2[nH]1` [Example 228, 3-(5-benzyl-1,2,4-oxadiazol-3-yl)-7-(piperidin-4-yl)pyrazolo[1,5-a]pyrimidin-5(4H)-one hydrochloride] showed a pIC50 of 7.48.

On to `O=c1cc(C2CCNCC2)n2ncc(-c3cccnc3)c2[nH]1` [Example 5, 7-(Piperidin-4-yl)-3-(pyridin-3-yl)pyrazolo[1,5-a]pyrimidin-5 (4H)-one hydrochloride], for which the pIC50 was 7.49.

`CCCOC(=O)c1c(C(F)(F)F)nn2c(C3CCNCC3)cc(=O)[nH]c12` [Example 459, Propyl 5-oxo-7-(piperidin-4-yl)-2-(trifluoromethyl)-4,5-dihydropyrazolo[1,5-a]pyrimidine-3-carboxylate hydrochloride] showed a pIC50 of 7.08.

`CCOC(=O)c1c(C(F)(F)F)nn2c(C3CCNCC3)cc(=O)[nH]c12` [Example 458, Ethyl 5-oxo-7-(piperidin-4-yl)-2-(trifluoromethyl)-4,5-dihydropyrazolo[1,5-a]pyrimidine-3-carboxylate hydrochloride] gave a pIC50 of 6.89. The same measure for `CC(=O)c1cnn2c(C3CCNCC3)cc(=O)[nH]c12` [Example 370, 3-acetyl-7-(piperidin-4-yl)pyrazolo[1,5-a]pyrimidin-5(4H)-one hydrochloride]: 7.44.

For the molecule `O=c1cc(C2CCNCC2)n2ncc(-c3nc(-c4cnccc4C(F)(F)F)no3)c2[nH]1` [Example 189, 7-(piperidin-4-yl)-3-{3-[4-(trifluoromethyl)pyridin-3-yl]-1,2,4-oxadiazol-5-yl}pyrazolo[1,5-a]pyrimidin-5(4H)-one hydrochloride], the pIC50 is 7.42.

The molecule `O=C(c1c(-c2ccccc2)nn2c(C3CCNCC3)cc(=O)[nH]c12)N1CCOCC1` [Example 43, 3-(Morpholin-4-ylcarbonyl)-2-phenyl-7-(piperidin-4-yl)pyrazolo[1,5-a]pyrimidin-5(4H)-one trifluoroacetate] showed a pIC50 of 7.57. The same measure for `C=C(C)c1cnn2c(C3CCNCC3)cc(=O)[nH]c12` [Example 449, 7-(piperidin-4-yl)-3-(prop-1-en-2-yl)pyrazolo[1,5-a]pyrimidin-5 (4H)-one hydrochloride]: 7.26; for `Cc1nn2c(C3CCNCC3)cc(=O)[nH]c2c1C(=O)NC1CCCC1` [Example 417, N-cyclopentyl-2-methyl-5-oxo-7-(piperidin-4-yl)-4,5-dihydro-pyrazolo[1,5-a] pyrimidine-3-carboxamide hydrochloride]: 7.62; for `O=C(c1cnn2c(C3CCNCC3)cc(=O)[nH]c12)N1CCC12CCOCC2` [Example 359, 3-(7-oxa-1-azaspiro[3.5]non-1-ylcarbonyl)-7-(piperidin-4-yl)pyrazolo[1,5-a]pyrimidin-5(4H)-one trifluoroacetate]: 6.92.

In the case of `O=c1cc(C2CCNCC2)n2ncc(-c3nnc(C4(c5ccc(Cl)cc5)CC4)o3)c2[nH]1` [Example 278, 3-{5-[1-(4-chlorophenyl)cyclopropyl]-1,3,4-oxadiazol-2-yl}-7-(piperidin-4-yl)pyrazolo[1,5-a]pyrimidin-5(4H)-one hydrochloride], the negative logarithm of the IC50 (pIC50) is 7.72. The figure for `CC(C)c1nc(-c2cnn3c(C4CCNCC4)cc(=O)[nH]c23)no1` [Example 256, 7-(piperidin-4-yl)-3-[5-(propan-2-yl)-1,2,4-oxadiazol-3-yl]pyrazolo[1,5-a]pyrimidin-5(4H)-one hydrochloride] is 7.55; for `O=c1cc(C2CCNCC2)n2ncc(-c3nnc(CC(F)(F)F)o3)c2[nH]1` [Example 289, 7-(piperidin-4-yl)-3-[5-(2,2,2-trifluoroethyl)-1,3,4-oxadiazol-2-yl]pyrazolo[1,5-a]pyrimidin-5(4H)-one hydrochloride] it is 7.57; for `COCCc1noc(-c2c(C)nn3c(C4CCNCC4)cc(=O)[nH]c23)n1` [Example 297, 3-[3-(2-methoxyethyl)-1,2,4-oxadiazol-5-yl]-2-methyl-7-(piperidin-4-yl)pyrazolo[1,5-a]pyrimidin-5(4H)-one hydrochloride] it is 7.57. `CN(CC1CC1)C(=O)c1cnn2c(C3CCNCC3)cc(=O)[nH]c12` [Example 78, N-(cyclopropylmethyl)-N-methyl-5-oxo-7-(piperidin-4-yl)-4,5-dihydropyrazolo[1,5-a]pyrimidine-3-carboxamide] showed a negative-log IC50 (pIC50) of 7.32. In the case of `Cc1ccc(Cc2noc(-c3cnn4c(C5CCNCC5)cc(=O)[nH]c34)n2)cc1` [Example 214, 3-[3-(4-methylbenzyl)-1,2,4-oxadiazol-5-yl]-7-(piperidin-4-yl)pyrazolo[1,5-a]pyrimidin-5(4H)-one hydrochloride], the pIC50 is 7.49. The figure for `O=c1cc(C2CCNCC2)n2ncc(-c3ccccc3OC(F)(F)F)c2[nH]1` [Example 71, 7-(Piperidin-4-yl)-3-[2-(trifluoromethoxy)phenyl]pyrazolo[1,5-a]pyrimidin-5(4H)-one hydrochloride] is 7.47.
